The experiment is filed under the species Canis familiaris. In words: The compound was tested for its relaxation activity on smooth muscle of canine mesenteric artery. Type of experiment: functional. The conditions noted are these: Canis lupus familiaris.
As to `CC1(C)C=C(C2CCC[S+]2[O-])c2cc([N+](=O)[O-])ccc2O1` (stereo not given), the EC50 is 1.96 µM.

`CC1(C)C=C(c2cccc[n+]2[O-])c2cc([N+](=O)[O-])ccc2O1`: the EC50 amounted to 0.0618 µM. Take `CC1(C)C[C@](O)(C2CCC[S+]2[O-])c2cc([N+](=O)[O-])ccc2O1` (stereo not given in full): the response was half-maximal at 12.2 µM (EC50).

In turn, `CC1(C)C=C(c2cccc[n+]2[O-])c2cc(C#N)ccc2O1` gave an EC50 of 0.222 µM.

In turn, `CC1(C)Oc2ccc(C#N)cc2[C@@H](N2CCCC2=O)[C@@H]1O` [CROMAKALIM] came in with an EC50 of 1.96 µM.

One may read the EC50 as the concentration needed to bring the measured effect to its halfway point.

Values taken from ChEMBL document CHEMBL1151561, “Benzopyran sulfoxide derivatives as New potassium channel activator” (Bioorg Med Chem Lett, 1993).
